Columns and labels:
Sprague-Dawley-rats [1] = experiment: Inhibition of kaolin-induced paw oedema, test compound injected in each paw simultaneously with kaolin; type: in vivo; details: 1 mg injected in each paw simultaneously with kaolin
Method: (§1) By subplantar injection of 0.1 ml of a kaolin suspension (100 mg/ml) into Sprague-Dawley-rats, an oedema is induced and the paw volume is measured plethysometrically every hour. Three hours after the induction of the oedema a suspension of the respective test compound in a 1% carboxymethylcellulose sodium solution (5 ml/kg body weight of the animal) is administered intraperitoneally. In table 2 the percentage of alteration in the paw volume due to the inhibition of the oedema by the test compound in relation to the volume determined immediately before the test compound was applied (i.e. the initial value) is shown. (FIGS. of more than 100% indicate a decrease in the volume of the oedema below the initial value):
In other experiments the test compound was administered simultaneously with the application of the kaolin suspension by injection of 1 mg of the test compound dissolved in 0.1 ml of a 1% carboxymethylcellulose sodium solution in each paw. The following maximum values of inhibition of the oedema or the formation of the oedema, respectively, were determined: […]

cyclooxygenase = target: T1, cyclooxygenase (Ovis aries, UniProt P05979); experiment: Inhibition of cyclooxygenase in sheep seminal vesicle microsomes; type: biochemical; details: for Quotient IC50 II/IC50 I: cyclooxygenase IC50 (II) / 5-lipoxygenase IC50 (I); for IC50: sheep seminal vesicle microsomes, pH 7.5, 10 minutes, room temperature, read-out: IC50 for inhibition of cyclooxygenase (II)
T1 construct: suspension of sheep seminal vesicle microsomes; from tissue; host or cells: sheep seminal vesicle microsomes
T1 sequence (P05979 25-600): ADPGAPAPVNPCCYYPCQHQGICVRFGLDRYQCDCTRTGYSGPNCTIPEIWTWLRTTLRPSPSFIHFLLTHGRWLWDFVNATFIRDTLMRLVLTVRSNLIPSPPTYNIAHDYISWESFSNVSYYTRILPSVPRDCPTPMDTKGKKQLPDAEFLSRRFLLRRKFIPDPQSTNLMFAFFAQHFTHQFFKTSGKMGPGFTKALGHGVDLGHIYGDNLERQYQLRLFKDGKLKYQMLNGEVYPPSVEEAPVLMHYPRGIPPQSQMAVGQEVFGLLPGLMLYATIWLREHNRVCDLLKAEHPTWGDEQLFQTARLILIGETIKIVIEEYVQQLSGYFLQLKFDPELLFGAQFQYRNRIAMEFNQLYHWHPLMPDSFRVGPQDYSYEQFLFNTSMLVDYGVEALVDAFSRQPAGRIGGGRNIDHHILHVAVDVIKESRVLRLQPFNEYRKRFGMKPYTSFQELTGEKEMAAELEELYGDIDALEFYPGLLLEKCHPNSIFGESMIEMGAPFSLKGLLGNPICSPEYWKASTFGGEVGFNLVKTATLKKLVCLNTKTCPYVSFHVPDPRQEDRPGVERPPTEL
Method: The effect of the test compounds on the activity of cyclooxygenase was tested usinfg a suspension of sheep seminal vesicle microsomes in 50 mM potassium phosphate buffer of pH 7.5 which was incubated for 10 minutes at room temperature with the test compound and [^14 C]-arachidonic acid. After acidification with glacial acetic acid the mixture was extracted with ethyl acetate and the residue obtained after evaporation of the extract separated by thin layer chromatography on plates precoated with silica gel using the solvent system ether/hexane/glacial acetic acid (50:50:1).

5-lipoxygenase = target: T2, 5-lipoxygenase (Rattus norvegicus, UniProt P12527); experiment: Inhibition of 5-lipoxygenase in rat basophilic leukemia cells (5-HETE and LTB4 formation from [14C]-arachidonic acid); type: cell-based; details: indomethacin 10 μM, A 23187, room temperature, 5 minutes, read-out: IC50 for inhibition of 5-lipoxygenase (I)
T2 construct: endogenous in cells; host or cells: rat basophilic leukemia cells
T2 sequence (P12527 1-673): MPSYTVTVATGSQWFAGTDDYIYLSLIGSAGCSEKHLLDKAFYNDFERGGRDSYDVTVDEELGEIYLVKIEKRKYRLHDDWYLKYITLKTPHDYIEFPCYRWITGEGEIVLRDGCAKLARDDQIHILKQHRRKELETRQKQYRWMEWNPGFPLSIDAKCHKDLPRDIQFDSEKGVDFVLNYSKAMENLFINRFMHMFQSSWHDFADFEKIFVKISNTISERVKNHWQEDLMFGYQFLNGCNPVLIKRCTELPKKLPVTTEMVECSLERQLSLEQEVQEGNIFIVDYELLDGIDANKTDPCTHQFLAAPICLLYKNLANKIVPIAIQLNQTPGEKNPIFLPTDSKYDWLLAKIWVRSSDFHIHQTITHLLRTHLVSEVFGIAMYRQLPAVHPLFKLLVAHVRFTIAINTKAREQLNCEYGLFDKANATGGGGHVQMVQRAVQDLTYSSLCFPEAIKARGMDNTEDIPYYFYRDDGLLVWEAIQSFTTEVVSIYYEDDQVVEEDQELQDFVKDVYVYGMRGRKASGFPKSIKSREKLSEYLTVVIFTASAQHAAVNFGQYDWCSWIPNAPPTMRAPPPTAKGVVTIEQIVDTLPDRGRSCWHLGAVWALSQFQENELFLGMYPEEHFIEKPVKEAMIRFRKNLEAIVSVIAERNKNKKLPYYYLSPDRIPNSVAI
Method: To determine the inhibition of 5-lipoxygenase rat basophilic leukemia cells were cultured in vitro, and after a cell concentration of about 10^6 cells/ml had been obtained, the cells were harvested by centrifugation at 400 g. The precipitate was suspended in 50 mM potassium phosphate buffer of pH 7.4 at 1.5×10^7 cells/ml.
To 1 ml each of this suspension there was added indomethacin (10 μM) and calcium chloride (2 mM) and then the mixture was incubated in presence or absence of a test compound with [^14 C]-arachidonic acid and the calcium ionophore A 23 187 [Chaney et al., J. Am. Chem. Soc. 96: 1932-3 (1974)] at room temperature for 5 minutes. The mixture was acidified to pH 5 and extracted with ethyl acetate to isolate the metabolites of arachidonic acid formed by the enzymatic action of 5-lipoxygenase. These were separated by thin layer chromatography using a solvent mixture known to be suitable for leukotriene analysis [c.f. Jakschik et al., Biochem. Biophys. Res. Commun. 102, 624 (1984)]. The distribution of the radioactivity among the different metabolites was measured with a Thin Layer Scanner (TLC linear analyzer). By bringing into relationship the percentages of the amount of 5-hydroxyeicosatetraenoic acid (5-HETE) and leukotriene B4 (LTB4) formed under the action of 5-lipoxygenase to the amount or the concentration, respectively, of the total radioactivity used and of the test compound of formula I the "IC50 -value I" (i.e. the concentration of the test compound which causes an 50%-inhibition of the 5-lipoxygenase) is determined.

Sprague-Dawley-rats [2] = experiment: Inhibition of kaolin-induced paw oedema, test compound given intraperitoneally three hours after induction; type: in vivo; details: for % Inhibition (Maximum) of oedema: 3 h after kaolin, more than 100% = decrease below initial value
Method: as §1, with “value): […]” for “value):”

Structure (SMILES) | Quotient IC50 II/IC50 I (cyclooxygenase) | IC50 (cyclooxygenase) | IC50 (5-lipoxygenase) | % Inhibition (Maximum) of oedema (Sprague-Dawley-rats [1]) | Time after administration of the test compound (of maximum inhibition) (Sprague-Dawley-rats [1]) | Time after administration of the test compound (of maximum inhibition) (Sprague-Dawley-rats [2]; 100.0 mg/kg intraperitoneally) | % Inhibition (Maximum) of oedema (Sprague-Dawley-rats [2]; 100.0 mg/kg intraperitoneally) | Time after administration of the test compound (of maximum inhibition) (Sprague-Dawley-rats [2]; 46.4 mg/kg intraperitoneally) | % Inhibition (Maximum) of oedema (Sprague-Dawley-rats [2]; 46.4 mg/kg intraperitoneally)
Oc1ccc(C#CCCCCCCC#CC(O)c2ccccc2)cc1O (stereo not shown) [Example 15, 1-(3',4'-Dihydroxyphenyl)-11-hydroxy-11-phenyl-undeca-1,9-diyne] | > 320.0 | > 100000 nM | 320 nM | 64% | 5 h | 2 h | 73% | – | –
Oc1ccc(C#CCCCCCC/C=C/C(O)C2CCCCC2)cc1O (stereo not shown) [Example 22c, 11-Cyclohexyl-1-(3',4'-dihydroxphenyl)-11-hydroxy-undec-9E-en-1-yne] | 44.8 | 130000 nM | 2900 nM | – | – | – | – | – | –
Oc1ccc(/C=C\CCCCCC/C=C/C(O)C2CCCCC2)cc1O (stereo not shown) [Example 22d, 11-Cyclohexyl-1-(3',4'-dihydroxyphenyl)-11-hydroxy-undeca-1Z,9E-diene] | 64.3 | 180000 nM | 2800 nM | – | – | – | – | – | –
COc1cc(C#CCCCCCCC#CCO)ccc1O [Example 5, 11-Hydroxy-1-(4'-hydroxy-3'-methoxyphenyl)-undeca-1,9-diyne] | – | – | – | 61% | 3 h | – | – | – | –
COc1cc(C#CCCCCCCC#CCO)cc(OC)c1O [Example 18, 1-(3',5'-Dimethoxy-4'-hydroxyphenyl)-11-hydroxy-undeca-1,9-diyne] | 380.0 | 38000 nM | 100 nM | – | – | – | – | – | –
OCC#CCCCCCCC#Cc1ccc(O)c(O)c1 [Example 7, 1-(3',4'-Dihydroxyphenyl)-11-hydroxy-undeca-1,9-diyne] | 253.3 | 38000 nM | 150 nM | 36% | 2 h | 1 h | 164% | 1 h | 65%

More lines, main results first:

Quotient IC50 II/IC50 I (cyclooxygenase) | IC50 (cyclooxygenase) | IC50 (5-lipoxygenase) | Structure (SMILES) | % Inhibition (Maximum) of oedema (Sprague-Dawley-rats [1]) | Time after administration of the test compound (of maximum inhibition) (Sprague-Dawley-rats [1]) | Time after administration of the test compound (of maximum inhibition) (Sprague-Dawley-rats [2]; 100.0 mg/kg intraperitoneally) | % Inhibition (Maximum) of oedema (Sprague-Dawley-rats [2]; 100.0 mg/kg intraperitoneally) | Time after administration of the test compound (of maximum inhibition) (Sprague-Dawley-rats [2]; 46.4 mg/kg intraperitoneally) | % Inhibition (Maximum) of oedema (Sprague-Dawley-rats [2]; 46.4 mg/kg intraperitoneally)
119.1 | 25000 nM | 210 nM | CCCCCC(O)C#CCCCCCCC#Cc1ccc(O)c(O)c1 (stereo not shown) [Example 14, 1-(3',4'-Dihydroxyphenyl)-11-hydroxy-hexadeca-1,9-diyne] | 46% | 2 h | 2 h | 127% | 1 h | 68%
88.6 | 31000 nM | 350 nM | CC(C)(O)C#CCCCCCCC#Cc1ccc(O)c(O)c1 [Example 13, 1-(3',4'-Dihydroxyphenyl)-11-hydroxy-11-methyl-dodeca-1,9-diyne] | – | – | – | – | – | –
132.1 | 37000 nM | 280 nM | Oc1ccc(C#CCCCCCCC#CC(O)C2CCCCC2)cc1O (stereo not shown) [Example 16, 11-Cyclohexyl-1-(3',4'-dihydroxyphenyl)-11-hydroxy-undeca-1,9-diyne] | 45% | 7 h | 1 h | 54% | – | –
90.3 | 28000 nM | 310 nM | OC/C=C\CCCCCC/C=C\c1ccc(O)c(O)c1 [Example 9, 1-(3',4'-Dihydroxyphenyl)-11-hydroxy-undeca-1Z,9Z-diene] | – | – | – | – | – | –
